Measured values reported in patent US9603899B2, “PDGF induced cell homing” (The Trustees of Columbia University in the City of New York, priority 2010, dated 2017).
Entries after “also recorded” stand apart in the source; their conditions may differ.

How the values were obtained:
[1] = test system: alveolar stem/progenitor cells; conditions: 15 μM; chemically defined medium, calcein AM label
[2] = test system: alveolar stem/progenitor cells; assay: Transwell migration assay; assay type: cell-based, human; conditions: for migration / recruitment of alveolar stem/progenitor cells: negative control serum-free medium, positive control DMEM with 15% FBS
Experimental: Transwell migration assay was performed to determine PDGF's ability to recruit alveolar stem/progenitor cells in a dose-response manner.

C[S+]([O-])CCCCN=C=S (stereo not shown) [sulforaphane]
capillary tubular formation [1]: blocked

platelet-derived growth factor [PDGF]
migration / recruitment of alveolar stem/progenitor cells ([2]; Transwell migration): induces robust, dose-dependent migration; also recorded: cell migration was shown; also recorded: induced dose-dependent migration | PDGF concentration at which highest cell migration was observed ([2]; tested at 10 ng/ml, 25 ng/ml and 50 ng/ml): 50 ng/mL

PDGF-AB: PDGF isoform composed of one A and one B chain
migration / recruitment of alveolar stem/progenitor cells ([2]; Transwell migration): resulted in cell migration

PDGF-AA: PDGF isoform composed of two A chains
migration / recruitment of alveolar stem/progenitor cells ([2]; Transwell migration): resulted in cell migration

PDGF-BB: PDGF isoform composed of two B chains
chemoattractant efficacy compared among PDGF isoforms ([2]; Transwell migration, compared with other PDGF isoforms and positive control 15% FBS): most potent chemoattractant among all PDGF isoforms; also recorded: most robust efficacy, which was equal to positive control group with 15% fetal bovine serum; also recorded: higher rates of cell migration | migration / recruitment of alveolar stem/progenitor cells ([2]; Transwell migration): induces robust, dose-dependent migration; also recorded: resulted in cell migration
